For test [1], the system named is HT-29. In words: Cytotoxicity against human HT-29 cells assessed as inhibition of cell growth. Type of test: functional, cell-based.
Test [2] deals with KB. In words: Cytotoxicity against human KB cells assessed as cell growth inhibition. Type of test: functional, cell-based.
Test [3] has as its system NCI-H460. As to the kind of experiment: Cytotoxicity against human NCI-H460 cells assessed as cell growth inhibition. Format: functional, cell-based.
Test [4] has as its system MKN-45. In words: Cytotoxicity against human MKN-45 cells assessed as cell growth inhibition. Format: functional, cell-based.
In test [5] the test system is MCF7. In words: Cytotoxicity against human MCF7 cells assessed as inhibition of cell growth. Format: functional, cell-based.
Test [6] has as its system MDA-MB-231. In words: Cytotoxicity against human MDA-MB-231 cells assessed as inhibition of cell growth. Type of test: functional, cell-based.
In test [7] the test system is A549. As to the kind of experiment: cells. To be noted: Homo sapiens.
Description: Cytotoxicity against human A549 cells assessed as inhibition of cell growth
Test [8] deals with HeLa. In words: Cytotoxicity against human HeLa cells assessed as inhibition of cell growth. Type of test: functional, cell-based.
Test [9] concerns HepG2. In words: Cytotoxicity against human HepG2 cells assessed as inhibition of cell growth. Format: functional, cell-based.
Test [10] is described as follows: Cytotoxicity against human […] cells assessed as inhibition of cell growth. Format: functional, cell-based.
The test system of test [11] is HCT-116. In words: Cytotoxicity against human HCT-116 cells assessed as inhibition of cell growth. Format: functional, cell-based.
For test [12], the system named is Ishikawa. As to the kind of experiment: Cytotoxicity against human Ishikawa cells assessed as inhibition of cell growth. Type of test: functional, cell-based.
Test [13] relates to PC-3. As to the kind of experiment: Cytotoxicity against human PC-3 cells assessed as inhibition of cell growth. Type of test: functional, cell-based.
Test [14] is described as follows: Cytotoxicity against human CL1-5 cells assessed as inhibition of cell growth. Format: functional, cell-based.
Test [15] deals with AGS. As to the kind of experiment: Cytotoxicity against human AGS cells assessed as inhibition of cell growth. Type of test: functional, cell-based.
Test [16] deals with NCI/ADR-RES. As to the kind of experiment: Cytotoxicity against human NCI-ADR-RES cells assessed as inhibition of cell growth. Format: functional, cell-based.
Test [17] is described as follows: Cytotoxicity against human Neural progenitor cells assessed as cell growth inhibition. Format: functional, cell-based.
In test [18] the test system is SH-SY5Y. As to the kind of experiment: Cytotoxicity against human SH-SY5Y cells assessed as cell growth inhibition. Format: functional, cell-based.
A short description of test [19]: Cytotoxicity against human SCC-29B cells assessed as inhibition of cell growth. Format: functional.
In test [20] the test system is B16-F10. In words: Cytotoxicity against mouse B16-F10 cells assessed as cell growth inhibition. Format: functional, cell-based.
Test [21] has as its system PA-1. In words: Cytotoxicity against human PA-1 cells assessed as inhibition of cell growth. Type of test: functional, cell-based.
The test system of test [22] is RKO. In words: Cytotoxicity against human RKO cells assessed as inhibition of cell growth. Type of test: functional, cell-based.

Experimental findings from ChEMBL document CHEMBL5233283, “Indole derivatives as tubulin polymerization inhibitors for the development of promising anticancer agents” (Bioorg Med Chem, 2021) are described below.

As to `COc1ccc(-n2ccc3cc(OC)c(OC)c(OC)c32)cc1O`, the IC50 (usually the concentration that gives 50% inhibition) in test [1] was determined as 0.0102 µM; in [2] it was 0.0137 µM; in test [3], 0.0129 µM; in test [4] it was 0.0111 µM.
As for `O=C1Nc2cc(Cl)ccc2/C1=C\c1c(-c2ccc(F)cc2)nc2ccccn12`, the GI50 (in general, the concentration at which growth is held to half of that of the control) in test [5] is 0.43 µM; in [6], 0.95 µM.
With `N#Cc1c(-c2ccc(F)cc2Cl)cc(-c2c[nH]c3ccccc23)n2ccnc12`, the IC50 came to 0.02 µM in [1], 0.05 µM in test [3], 0.14 µM in test [4] and 0.57 µM in [7].
In the case of `O=C(N/N=C/c1ccc(C(F)(F)F)cc1)c1[nH]c2ccc(Cl)cc2c1-c1ccccc1`, the half-maximal inhibitory concentration (IC50) in test [5] is 0.42 µM.
As for `COc1cc(C2=CN(C(N)=O)C(c3cn(C)c4ccc(Br)cc34)C2)cc(OC)c1OC` (stereo unspecified), the IC50 in test [5] came out at 0.29 µM; in [8], 0.21 µM; in [9] it was 0.31 µM; in [7], 0.26 µM.
With `COc1cc(/C=N/NC(=O)c2cn(Cc3ccccc3)c3ccccc23)cc(OC)c1OC`, the IC50 was determined as 0.64 µM in test [5], 0.63 µM in [9], 35.6 µM in [10] and 0.08 µM in test [7].
As to `COc1cc(/C=C/c2ncc([N+](=O)[O-])n2CCOC(=O)c2c[nH]c3ccccc23)cc(OC)c1OC`, the IC50 amounted to 0.03 µM in test [5], 0.04 µM in test [9] and 0.035 µM in test [7].
Consider `Oc1cccc(-n2cc(CSc3c[nH]c4ccccc34)nn2)c1`, for which the IC50 in test [5] is 2.37 µM.
`COc1ccc(C(=O)/C=C/c2ccc3c(ccn3C)c2)c2ccccc12`: the IC50 was 0.82 µM in test [5], 0.65 µM in test [9] and 1.13 µM in test [11].
With `COC(=O)c1[nH]c2cc(OC)ccc2c1/C=C/C(=O)c1cc(OC)c(OC)c(OC)c1`, the values for the IC50 in test [5], in test [1] and in test [8] were 0.17 µM, 0.16 µM and 0.37 µM, respectively.
Turning to `COC(=O)c1c(Nc2cc(OC)c(OC)c(OC)c2)c2ccc(OC)cc2n1C`, the 50% inhibitory concentration (IC50) in test [5], in test [1] and in test [8] was 0.11 µM throughout.
As to `O=C(CC#Cc1ccccc1)Oc1ccc2[nH]ccc2c1`, the IC50 in test [5] was 3.8 µM; in [6], 9.9 µM; in test [8] it was 3.2 µM; in [12], 10.1 µM.
`COc1ccc(S(=O)(=O)Nc2cccc3cc(-c4ccccc4)[nH]c23)cc1`: the half-inhibitory concentration (IC50) in [1] was found to be 0.13 µM; in [8], 0.2 µM; in test [13], 0.11 µM; in test [14] it was 0.45 µM; in [15], 0.25 µM; in test [16] it was 0.15 µM. In addition, half-maximal inhibition in test [7] (IC50) required 1.43 µM.
With `COC(=O)c1[nH]c2ccc(OC)cc2c1Nc1cc(OC)c(OC)c(OC)c1`, the IC50 in test [5], in [1] and in test [8] was 0.11 µM throughout.
Turning to `CC(=O)c1ccc(C2=C(c3c(C)[nH]c4ccccc34)C(=O)N(C)C2=O)cc1`, the IC50 stood at 1.31 µM in test [17], 8.48 µM in [18] and 4.97 µM in test [7].
As for `O=C(O)c1cccc(-n2cc(CSc3c[nH]c4ccccc34)nn2)c1`, the IC50 in test [5] is 3.52 µM.
`COc1ccc(C(=O)/C=C/c2cn(C)c3ccc(C(=O)c4cc(OC)c(OC)c(OC)c4)cc23)cc1OC`: in test [19], the GI50 was determined as 0.96 µM.
Regarding `O=C(CC(c1ccc(F)cc1)c1c(-c2ccccc2)[nH]c2ccccc12)c1ccccc1` (stereo unspecified), the IC50 in test [5] and in test [20] was 10 µM in each case.
As for `N#Cc1ccc(/C=N/NC(=O)c2[nH]c3ccc(Cl)cc3c2-c2ccccc2)cc1`, the IC50 in [5] is 0.17 µM.
`COc1cc(CSc2nnc(-c3cn(C)c4ccccc34)n2-c2ccccc2)cc(OC)c1OC`: the IC50 in [5] turned out to be 0.38 µM; in test [8], 0.15 µM; in test [9] it was 0.3 µM; in test [7], 0.3 µM.
In the case of `O=C(N/N=C/c1c[nH]c2ccccc12)c1c[nH]c2ccccc12`, the IC50 in test [5] was determined as 5.25 µM; in [6], 8 µM; in test [8], 1.5 µM; in test [9], 29.7 µM; in [21], 24.7 µM.
In the case of `O=C(CC(c1ccccc1)c1c(-c2ccccc2)[nH]c2ccccc12)c1ccc(F)cc1` (stereo unspecified), the IC50 in [5] and in test [20] was 10 µM in each case.
As to `COc1cc(C(=O)c2cccc3[nH]ccc23)cc([Se]C)c1OC`, the IC50 in test [6], in [8], in [9], in test [22], in test [11] and in test [7] was 0.004 µM in each case.
